Assay results from US20060069132A1, “Azolecarboxamide herbicides” (priority 2004, published 2006).

Assays:
ducksalad = assay: Test B flooded paddy test; assay type: in vivo, Heteranthera limosa; conditions: 1000 g ai/ha, scale 0 to 100 (0 no effect, 100 complete control)
In short: (§1)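 Greenhouse test; postemergence application to plants at 1–4 leaves (2–18 cm); paddy species at 2 leaves; evaluated visually vs controls at 13–15 days; scale 0–100 (100 = complete control).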

redroot pigweed = assay: Test A pre-/postemergence herbicide test; assay type: in vivo, Amaranthus retroflexus
In short: (§2)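 Seeds sown in sandy loam received a preemergence directed soil spray of compound in non-phytotoxic solvent with surfactant; postemergence plants (2–10 cm, one- to two-leaf stage) were sprayed to runoff at the same time. After ~10 days in greenhouse, injury was rated visually versus untreated controls (0 = no effect, 100 = complete control).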

wild oat = assay: Test B postemergence herbicide test; assay type: in vivo, Avena fatua; conditions: postemergence
In short: (§3)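 Each value is a visual 0–100 response rating taken against controls 13 to 15 days after treatment in the greenhouse. Plants received formulated chemical postemergence at the 1- to 4-leaf stage or, in flooded paddy, at the 2-leaf stage.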

rice [1] = assay: Test B pre-/postemergence herbicide test; assay type: in vivo, Oryza sativa; conditions: 0 = no effect, 100 = complete control, preemergence
In short: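 Plants compared with untreated controls 13–15 days post-treatment and given a visual 0–100 injury score. Applications: preemergence to seeds; postemergence at 1- to 4-leaf (2–18 cm); paddy species flooded, 2-leaf stage. Vehicle non-phytotoxic, surfactant included.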

barnyardgrass [2] = assay: Test B flooded paddy test; assay type: in vivo, Echinochloa crus-galli; conditions: 1000 g ai/ha, scale 0 to 100 (0 no effect, 100 complete control)
In short: as §1

blackgrass = assay: Test B postemergence herbicide test; assay type: in vivo, Alopecurus myosuroides; conditions: postemergence
In short: as §1

velvetleaf [3] = assay: Test A pre-/postemergence herbicide test; assay type: in vivo, Abutilon theophrasti
In short: as §2

morningglory [4] = assay: Test B pre-/postemergence herbicide test; assay type: in vivo, Ipomoea coccinea; conditions: for Morningglory plant response rating: postemergence
In short: (§4)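 Greenhouse pot assay with simultaneous preemergence (treated seed) and postemergence (2–18 cm seedlings) applications of surfactant-containing, non-phytotoxic solvent formulations. Response scored visually 13–15 days later on a 0–100 scale, 100 meaning complete control.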

large crabgrass [5] = assay: Test A pre-/postemergence herbicide test; assay type: in vivo, Digitaria sanguinalis
In short: as §2

barnyardgrass [6] = assay: Test A pre-/postemergence herbicide test; assay type: in vivo, Echinochloa crus-galli
In short: as §2

barnyardgrass [7] = assay: Test B pre-/postemergence herbicide test; assay type: in vivo, Echinochloa crus-galli; conditions: for Barnyardgrass plant response rating: postemergence
In short: as §4

large crabgrass [8] = assay: Test B pre-/postemergence herbicide test; assay type: in vivo, Digitaria sanguinalis; conditions: for Crabgrass, Large plant response rating: postemergence
In short: (§5)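 Evaluation is visual, comparing treated with control plants on a scale where 0 means no effect and 100 means full control. Treatments were preemergence, or postemergence on seedlings 2–18 cm tall, and held 13–15 days in the greenhouse.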

cocklebur = assay: Test B pre-/postemergence herbicide test; assay type: in vivo, Xanthium strumarium; conditions: for Cocklebur plant response rating: postemergence
In short: as §4

Surinam grass = assay: Test B pre-/postemergence herbicide test; assay type: in vivo, Urochloa decumbens; conditions: for Surinam Grass plant response rating: postemergence
In short: as §5

giant foxtail [9] = assay: Test B pre-/postemergence herbicide test; assay type: in vivo, Setaria faberi; conditions: for Foxtail, Giant plant response rating: postemergence
In short: as §5

giant foxtail [10] = assay: Test A pre-/postemergence herbicide test; assay type: in vivo, Setaria faberi
In short: as §2

[11] = system: small flower umbrella sedge; assay: Test B flooded paddy test; assay type: in vivo, Cyperus difformis; conditions: 1000 g ai/ha, scale 0 to 100 (0 no effect, 100 complete control)
In short: as §1

morningglory [12] = assay: Test A pre-/postemergence herbicide test; assay type: in vivo, Ipomoea spp.
In short: as §2

lambsquarters = assay: Test B pre-/postemergence herbicide test; assay type: in vivo, Chenopodium album; conditions: for Lambsquarters plant response rating: postemergence
In short: as §5

velvetleaf [13] = assay: Test B pre-/postemergence herbicide test; assay type: in vivo, Abutilon theophrasti; conditions: for Velvetleaf plant response rating: postemergence
In short: as §5

wheat = assay: Test B postemergence herbicide test; assay type: in vivo, Triticum aestivum; design: key to Wheat plant response rating: 0 = no effect, 100 = complete control; conditions: postemergence
In short: as §3

rice [14] = assay: Test B flooded paddy test; assay type: in vivo, Oryza sativa; conditions: 1000 g ai/ha, scale 0 to 100 (0 no effect, 100 complete control)
In short: as §3

corn = assay: Test B pre-/postemergence herbicide test; assay type: in vivo, Zea mays; conditions: for Corn plant response rating: postemergence
In short: as §5

pigweed = assay: Test B pre-/postemergence herbicide test; assay type: in vivo, Amaranthus retroflexus; conditions: for Pigweed plant response rating: postemergence
In short: as §5

[15] = Postemergence, 500 g ai/ha, 0 to 100 scale, 0 no effect, 100 complete control
[16] = Postemergence, 2000 g ai/ha, 0 to 100 scale, 0 no effect, 100 complete control
[17] = Preemergence, 2000 g ai/ha, visual rating, 0 to 100 scale (0 no effect, 100 complete control)
[18] = preemergence, 500 g ai/ha, visual injury, 0 to 100 scale (0 no effect, 100 complete control)
[19] = 125 g ai/ha, visual rating, scale 0 (no effect) to 100 (complete control)
[20] = 500 g ai/ha, scale 0 to 100, 0 is no effect, 100 is complete control
[21] = 125 g ai/ha, 0 = no effect, 100 = complete control, preemergence
[22] = 500 g ai/ha, visual rating, 0 = no effect, 100 = complete control, preemergence

CCN(C)C(=O)c1ccc(F)c(NC(=O)c2cc(C(C)(C)C)nn2CC)n1 [Compound 280]
Ducksalad plant response rating (ducksalad): 20
Pigweed plant response rating (redroot pigweed; [15]): 55
Plant response rating, Pigweed (redroot pigweed; [16]): 70
Pigweed plant response rating (redroot pigweed; [17]): 90
Pigweed plant response rating (redroot pigweed; [18]): 15
Oat, Wild plant response rating (wild oat; [19]): 10
Oat, Wild plant response rating (wild oat; [20]): 20
Rice plant response rating (0 to 100 scale) (rice [1]; 125 g ai/ha): 0
Plant response rating, Rice (rice [1]; 500 g ai/ha, visual rating): 10
Barnyardgrass plant response rating (barnyardgrass [2]): 0
Blackgrass plant response rating (blackgrass; [19]): 20
Blackgrass plant response rating (blackgrass; [20]): 20
Velvetleaf plant response rating (velvetleaf [3]; [15]): 20
Plant response rating, Velvetleaf (velvetleaf [3]; [16]): 30
Velvetleaf plant response rating (velvetleaf [3]; [17]): 30
Velvetleaf plant response rating (velvetleaf [3]; [18]): 0
Morningglory plant response rating (0 to 100 scale) (morningglory [4]; [21]): 0
Plant response rating, Morningglory (morningglory [4]; [22]): 0
Morningglory plant response rating (morningglory [4]; [19]): 0
Morningglory plant response rating (morningglory [4]; [20]): 10
Crabgrass, Large plant response rating (large crabgrass [5]; [15]): 5
Plant response rating, Crabgrass, Large (large crabgrass [5]; [16]): 0
Crabgrass, Large plant response rating (large crabgrass [5]; [17]): 25
Crabgrass, Large plant response rating (large crabgrass [5]; [18]): 0
Barnyardgrass plant response rating (barnyardgrass [6]; [15]): 0
Plant response rating, Barnyardgrass (barnyardgrass [6]; [16]): 25
Barnyardgrass plant response rating (barnyardgrass [6]; [17]): 45
Barnyardgrass plant response rating (barnyardgrass [6]; [18]): 0
Barnyardgrass plant response rating (0 to 100 scale) (barnyardgrass [7]; [21]): 0
Plant response rating, Barnyardgrass (barnyardgrass [7]; [22]): 10
Barnyardgrass plant response rating (barnyardgrass [7]; [19]): 0
Barnyardgrass plant response rating (barnyardgrass [7]; [20]): 0
Crabgrass, Large plant response rating (0 to 100 scale) (large crabgrass [8]; [21]): 0
Plant response rating, Crabgrass, Large (large crabgrass [8]; [22]): 10
Crabgrass, Large plant response rating (large crabgrass [8]; [19]): 0
Crabgrass, Large plant response rating (large crabgrass [8]; [20]): 0
Cocklebur plant response rating (0 to 100 scale) (cocklebur; [21]): 0
Plant response rating, Cocklebur (cocklebur; [22]): 0
Cocklebur plant response rating (cocklebur; [19]): 0
Cocklebur plant response rating (cocklebur; [20]): 30
Surinam Grass plant response rating (0 to 100 scale) (Surinam grass; [21]): 0
Plant response rating, Surinam Grass (Surinam grass; [22]): 10
Surinam Grass plant response rating (Surinam grass; [19]): 0
Surinam Grass plant response rating (Surinam grass; [20]): 10
Foxtail, Giant plant response rating (0 to 100 scale) (giant foxtail [9]; [21]): 0
Plant response rating, Foxtail, Giant (giant foxtail [9]; [22]): 10
Foxtail, Giant plant response rating (giant foxtail [9]; [19]): 0
Foxtail, Giant plant response rating (giant foxtail [9]; [20]): 0
Foxtail, Giant plant response rating (giant foxtail [10]; [15]): 0
Plant response rating, Foxtail, Giant (giant foxtail [10]; [16]): 0
Foxtail, Giant plant response rating (giant foxtail [10]; [17]): 45
Foxtail, Giant plant response rating (giant foxtail [10]; [18]): 5
Sedge, Umbrella plant response rating [11]: 30
Morningglory plant response rating (morningglory [12]; [15]): 0
Plant response rating, Morningglory (morningglory [12]; [16]): 10
Morningglory plant response rating (morningglory [12]; [17]): 15
Morningglory plant response rating (morningglory [12]; [18]): 0
Plant response rating, Lambsquarters (lambsquarters; [22]): 80
Lambsquarters plant response rating (lambsquarters; [19]): 10
Lambsquarters plant response rating (lambsquarters; [20]): 20
Velvetleaf plant response rating (0 to 100 scale) (velvetleaf [13]; [21]): 10
Plant response rating, Velvetleaf (velvetleaf [13]; [22]): 20
Velvetleaf plant response rating (velvetleaf [13]; [19]): 10
Velvetleaf plant response rating (velvetleaf [13]; [20]): 20
Wheat plant response rating (wheat; [19]): 20
Wheat plant response rating (wheat; [20]): 30
Rice plant response rating (rice [14]): 0
Corn plant response rating (0 to 100 scale) (corn; [21]): 0
Plant response rating, Corn (corn; [22]): 0
Corn plant response rating (corn; [19]): 0
Corn plant response rating (corn; [20]): 10
Pigweed plant response rating (0 to 100 scale) (pigweed; [21]): 70
Plant response rating, Pigweed (pigweed; [22]): 100
Pigweed plant response rating (pigweed; [19]): 10
Pigweed plant response rating (pigweed; [20]): 20
